Source: publication PMC9403976, “Elucidating the path to Plasmodium prolyl-tRNA synthetase inhibitors that overcome halofuginone resistance” (Nature Communications, 2022)
Several values for one entry are separate records, joined by “and”; a condition that tells them apart may be missing. Equal values may be shown once. Read-outs that look alike come from different tables or passages of the source.

Columns and labels:
HsProRS = HsProRS (Homo sapiens, UniProt P07814); assay: TR-FRET ligand displacement assay with tracer MAT379 (CoraFluor-1-Halo and anti-His6 antibody formats); assay type: binding; parameters: made in house; host or cells: E. coli SoluBL-21; settings: for TR-FRET dose-response, normalized signal (SI Fig 11): individual replicates
P. falciparum Dd2-2D4 = assay: P. falciparum asexual blood stage (ABS) growth assay, SYBR Green, 72 h, wild-type parasites; assay type: cell-based, Plasmodium falciparum; settings: Plasmodium falciparum, DD2; SI Fig 16b; values on -log scale; read-out: ABS - Dd2-2D4 (converted)
Protocol: Parasites were maintained under standard culture conditions as described previously[56],[57]. […] The P. falciparum Dd2 cell lines used in this study (Dd2-2D4, halofuginone-induced, and HFGR-I) have previously undergone whole genome sequencing in our labs.
This assay was performed as previously described[8]. In short, P. falciparum erythrocytic-stage parasites at 1% parasitemia and 1% hematocrit in RPMI + 0.5% Albumax were seeded at 40 μL/well in 384-well plates with test compounds in triplicate, dose-response format with 10 μM dihydroartemisinin as a kill-control and blank (no compound) wells as a growth-control. […] After 72 h, growth was quantified by measuring fluorescence (Molecular Devices SpectraMax iD5) following SYBR Green 1 staining. Data were analyzed in Excel and plotted in PRISM (V. 8.4.3–9.1.0, GraphPad).

PfcProRS = biological target: T1, PfcProRS (Plasmodium falciparum, UniProt Q8I5R7); assay type: binding; settings: for dose-response signal (normalized), SI Fig 8: single replicates
T1 construct: made in house; host or cells: E. coli SoluBL-21
T1 sequence (Q8I5R7 249-746): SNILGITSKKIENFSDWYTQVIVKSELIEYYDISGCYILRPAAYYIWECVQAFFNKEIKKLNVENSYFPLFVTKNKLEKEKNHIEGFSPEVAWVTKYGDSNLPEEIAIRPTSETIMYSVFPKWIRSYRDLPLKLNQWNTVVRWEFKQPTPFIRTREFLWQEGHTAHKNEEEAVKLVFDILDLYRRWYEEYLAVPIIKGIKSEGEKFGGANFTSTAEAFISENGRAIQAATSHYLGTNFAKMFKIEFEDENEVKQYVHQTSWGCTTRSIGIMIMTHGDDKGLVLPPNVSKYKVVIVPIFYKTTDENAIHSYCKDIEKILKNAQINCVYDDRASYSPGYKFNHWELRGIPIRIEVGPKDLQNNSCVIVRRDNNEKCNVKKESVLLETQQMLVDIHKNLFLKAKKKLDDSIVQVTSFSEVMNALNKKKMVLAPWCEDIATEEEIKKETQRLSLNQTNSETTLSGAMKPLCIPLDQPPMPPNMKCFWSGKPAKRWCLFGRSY

Chain of HsProRS (P07814 996-1512): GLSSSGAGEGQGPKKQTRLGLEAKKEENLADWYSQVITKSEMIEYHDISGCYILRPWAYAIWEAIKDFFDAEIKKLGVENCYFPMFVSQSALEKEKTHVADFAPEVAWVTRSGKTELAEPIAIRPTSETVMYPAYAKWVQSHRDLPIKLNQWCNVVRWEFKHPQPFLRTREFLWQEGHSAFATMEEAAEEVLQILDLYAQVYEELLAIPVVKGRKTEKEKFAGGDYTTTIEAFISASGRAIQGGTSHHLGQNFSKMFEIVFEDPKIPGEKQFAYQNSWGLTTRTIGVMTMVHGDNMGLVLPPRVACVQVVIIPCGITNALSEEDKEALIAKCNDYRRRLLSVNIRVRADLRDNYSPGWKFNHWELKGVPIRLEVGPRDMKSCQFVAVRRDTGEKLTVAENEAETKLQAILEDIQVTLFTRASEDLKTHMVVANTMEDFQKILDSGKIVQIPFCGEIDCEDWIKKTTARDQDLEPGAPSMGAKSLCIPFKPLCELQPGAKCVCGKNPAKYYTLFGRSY

SMILES: NC1(C(=O)Nc2nccnc2C(=O)NC2Cc3ccccc3C2)CCCCC1 [compound 17]
- Kd (HsProRS; HsProRS (KD [nM]) mean, no added proline/ATP (-)): 4430 nM
- Kd (HsProRS; HsProRS - best Kd, SI Fig 16a, values on -log scale): 25.5 nM
- normalized TR-FRET ligand displacement signal, dose-response replicates (SI Fig 6) (HsProRS; Log[inhibitor] (M) -5.000): 2.29E-01 and 2.88E-01 and 2.34E-01
- TR-FRET dose-response, normalized signal (SI Fig 11) (HsProRS; Log[inhibitor] (M) -5.000): 3.10E-01 and 3.50E-01 and 2.83E-01
- normalized TR-FRET ligand displacement signal, dose-response replicates (SI Fig 6) (HsProRS; Log[inhibitor] (M) -5.301): 4.79E-01 and 4.33E-01 and 5.59E-01
- TR-FRET dose-response, normalized signal (SI Fig 11) (HsProRS; Log[inhibitor] (M) -5.301): 5.37E-01 (2×) and 4.61E-01
- normalized TR-FRET ligand displacement signal, dose-response replicates (SI Fig 6) (HsProRS; Log[inhibitor] (M) -5.601): 7.03E-01 and 7.28E-01 and 7.31E-01
- TR-FRET dose-response, normalized signal (SI Fig 11) (HsProRS; Log[inhibitor] (M) -5.601): 6.81E-01 and 6.32E-01 and 7.28E-01
- normalized TR-FRET ligand displacement signal, dose-response replicates (SI Fig 6) (HsProRS; Log[inhibitor] (M) -5.904): 9.55E-01 and 9.39E-01 and 8.52E-01
- TR-FRET dose-response, normalized signal (SI Fig 11) (HsProRS; Log[inhibitor] (M) -5.904): 7.93E-01 and 8.32E-01 and 8.75E-01
- normalized TR-FRET ligand displacement signal, dose-response replicates (SI Fig 6) (HsProRS; Log[inhibitor] (M) -6.208): 9.44E-01 and 9.23E-01 and 8.86E-01
- TR-FRET dose-response, normalized signal (SI Fig 11) (HsProRS; Log[inhibitor] (M) -6.208): 9.35E-01 and 8.64E-01 and 9.27E-01
- normalized TR-FRET ligand displacement signal, dose-response replicates (SI Fig 6) (HsProRS; Log[inhibitor] (M) -6.509): 9.47E-01 and 9.84E-01 and 9.68E-01
- TR-FRET dose-response, normalized signal (SI Fig 11) (HsProRS; Log[inhibitor] (M) -6.509): 8.93E-01 and 9.27E-01 and 9.36E-01
- normalized TR-FRET ligand displacement signal, dose-response replicates (SI Fig 6) (HsProRS; Log[inhibitor] (M) -6.796): 9.18E-01 and 9.88E-01 and 9.43E-01
- TR-FRET dose-response, normalized signal (SI Fig 11) (HsProRS; Log[inhibitor] (M) -6.796): 9.97E-01 and 9.65E-01 and 9.84E-01
- normalized TR-FRET ligand displacement signal, dose-response replicates (SI Fig 6) (HsProRS; Log[inhibitor] (M) -7.108): 9.90E-01 and 9.75E-01 and 9.07E-01
- TR-FRET dose-response, normalized signal (SI Fig 11) (HsProRS; Log[inhibitor] (M) -7.108): 9.67E-01 and 9.70E-01 and 9.86E-01
- normalized TR-FRET ligand displacement signal, dose-response replicates (SI Fig 6) (HsProRS; Log[inhibitor] (M) -7.409): 1.03E+00 and 1.00E+00 and 1.02E+00
- TR-FRET dose-response, normalized signal (SI Fig 11) (HsProRS; Log[inhibitor] (M) -7.409): 9.20E-01 and 9.49E-01 and 9.94E-01
- normalized TR-FRET ligand displacement signal, dose-response replicates (SI Fig 6) (HsProRS; Log[inhibitor] (M) -7.710): 1.02E+00 and 9.03E-01 and 1.03E+00
- TR-FRET dose-response, normalized signal (SI Fig 11) (HsProRS; Log[inhibitor] (M) -7.710): 9.99E-01 and 9.64E-01 and 1.05E+00
- normalized TR-FRET ligand displacement signal, dose-response replicates (SI Fig 6) (HsProRS; Log[inhibitor] (M) -8.000): 1.01E+00 and 9.27E-01 and 9.75E-01
- TR-FRET dose-response, normalized signal (SI Fig 11) (HsProRS; Log[inhibitor] (M) -8.000): 1.01E+00 and 9.57E-01 and 9.53E-01
- normalized TR-FRET ligand displacement signal, dose-response replicates (SI Fig 6) (HsProRS; Log[inhibitor] (M) -8.301): 1.01E+00 and 1.00E+00 and 1.05E+00
- TR-FRET dose-response, normalized signal (SI Fig 11) (HsProRS; Log[inhibitor] (M) -8.301): 9.70E-01 and 9.81E-01 and 1.01E+00
- normalized TR-FRET ligand displacement signal, dose-response replicates (SI Fig 6) (HsProRS; Log[inhibitor] (M) -8.602): 9.94E-01 and 1.05E+00 and 1.03E+00
- TR-FRET dose-response, normalized signal (SI Fig 11) (HsProRS; Log[inhibitor] (M) -8.602): 9.48E-01 and 9.63E-01 and 9.29E-01
- normalized TR-FRET ligand displacement signal, dose-response replicates (SI Fig 6) (HsProRS; Log[inhibitor] (M) -9.000): 9.41E-01 and 1.01E+00 and 9.67E-01
- TR-FRET dose-response, normalized signal (SI Fig 11) (HsProRS; Log[inhibitor] (M) -9.000): 9.46E-01 and 9.80E-01 and 9.64E-01
- normalized TR-FRET ligand displacement signal, dose-response replicates (SI Fig 6) (HsProRS; Log[inhibitor] (M) -9.301): 1.02E+00 and 9.62E-01 and 8.95E-01
- TR-FRET dose-response, normalized signal (SI Fig 11) (HsProRS; Log[inhibitor] (M) -9.301): 9.77E-01 (2×) and 9.15E-01
- EC50 (P. falciparum Dd2-2D4): 5.79 µM
- dose-response signal (normalized), SI Fig 8 (PfcProRS; Log[inhibitor] (M) -5.000): -2.16E-02 and 3.35E-02 and 3.85E-02
- dose-response signal (normalized), SI Fig 8 (PfcProRS; Log[inhibitor] (M) -5.301): 9.18E-02 and 6.95E-02 and 1.07E-01
- dose-response signal (normalized), SI Fig 8 (PfcProRS; Log[inhibitor] (M) -5.601): 1.19E-01 and 1.25E-01 and 1.05E-01
- dose-response signal (normalized), SI Fig 8 (PfcProRS; Log[inhibitor] (M) -5.904): 2.12E-01 and 2.21E-01 and 2.19E-01
- dose-response signal (normalized), SI Fig 8 (PfcProRS; Log[inhibitor] (M) -6.208): 4.81E-01 and 4.00E-01 and 5.13E-01
- dose-response signal (normalized), SI Fig 8 (PfcProRS; Log[inhibitor] (M) -6.509): 7.01E-01 and 7.64E-01 and 7.83E-01
- dose-response signal (normalized), SI Fig 8 (PfcProRS; Log[inhibitor] (M) -6.796): 9.36E-01 and 8.53E-01 and 9.43E-01
- dose-response signal (normalized), SI Fig 8 (PfcProRS; Log[inhibitor] (M) -7.108): 1.01E+00 and 9.81E-01 and 1.06E+00
- dose-response signal (normalized), SI Fig 8 (PfcProRS; Log[inhibitor] (M) -7.409): 1.04E+00 and 9.85E-01 and 1.08E+00
- dose-response signal (normalized), SI Fig 8 (PfcProRS; Log[inhibitor] (M) -7.710): 9.36E-01 and 1.05E+00 and 9.73E-01
- dose-response signal (normalized), SI Fig 8 (PfcProRS; Log[inhibitor] (M) -8.000): 9.16E-01 and 9.94E-01 and 1.09E+00
- dose-response signal (normalized), SI Fig 8 (PfcProRS; Log[inhibitor] (M) -8.301): 1.01E+00 and 9.14E-01 and 9.61E-01
- dose-response signal (normalized), SI Fig 8 (PfcProRS; Log[inhibitor] (M) -8.602): 9.67E-01 and 1.05E+00 and 9.29E-01
- dose-response signal (normalized), SI Fig 8 (PfcProRS; Log[inhibitor] (M) -9.000): 9.54E-01 and 9.96E-01 and 9.84E-01
- dose-response signal (normalized), SI Fig 8 (PfcProRS; Log[inhibitor] (M) -9.301): 9.59E-01 and 9.29E-01 and 9.60E-01
- PfcProRS -- best Kd (PfcProRS; SI Fig 16a, values on -log scale): 6.883
